Data as given in ChEMBL document CHEMBL1201862, “PubChem BioAssay data set” (2004).
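A five-concentration, 48-hour dose response in 96-well plates underlies each endpoint, interpolated linearly between surrounding concentrations. The concentration for 50% growth inhibition is given as GI50.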 Calls of active or inactive are those of the source. Cut-off read from the data, not from the text of the source: active = GI50 up to about 1.1 µM and inactive = higher.

Columns and labels:
Assay in all cases: DTP human tumour cell line panel, 48 h
CCRF-CEM = test system: CCRF-CEM
COLO 205 = test system: COLO 205
HL-60 = test system: HL-60
MOLT-4 = test system: MOLT-4
Malme-3M = test system: Malme-3M
OVCAR-3 = test system: OVCAR-3
RPMI-8226 = test system: RPMI-8226
TK-10 = test system: TK-10
UO-31 = test system: UO-31
A549 = test system: A549
HCC 2998 = test system: HCC 2998
HOP-92 = test system: HOP-92
OVCAR-5 = test system: OVCAR-5
SNB-75 = test system: SNB-75
UACC-257 = test system: UACC-257
KM12 = test system: KM12

Measured: GI50

COc1ccc(/C(Cl)=C(\CN(C)C)c2ccc(OC)c(OC)c2)cc1OC
inactive: CCRF-CEM > 100 µM | COLO 205 > 100 µM | HL-60 21.2 µM | MOLT-4 > 100 µM | Malme-3M > 100 µM | OVCAR-3 > 100 µM | RPMI-8226 > 100 µM | TK-10 > 100 µM | UO-31 > 100 µM

O=C(Nc1ccc(Cl)cc1)c1cc2cc(/N=N/c3ccccc3Cl)ccc2oc1=O
inactive: A549 29.2 µM | CCRF-CEM 2.01 µM | COLO 205 34.1 µM | HCC 2998 18.9 µM | HL-60 2.14 µM | HOP-92 18.9 µM | MOLT-4 2.58 µM | Malme-3M 18.5 µM | OVCAR-3 22.2 µM | OVCAR-5 44.6 µM | RPMI-8226 4.76 µM | SNB-75 24 µM | TK-10 33.3 µM | UACC-257 19.2 µM | UO-31 11.6 µM

CCCC[S+]([O-])CC(CO)NC(=O)/C=C/c1c(C)[nH]c(=O)[nH]c1=O (stereo not drawn)
inactive: A549 10.8 µM | CCRF-CEM 6.65 µM | COLO 205 16.7 µM | HCC 2998 8.28 µM | HL-60 7.23 µM | HOP-92 11.8 µM | KM12 5.64 µM | MOLT-4 8.3 µM | Malme-3M 3.14 µM | OVCAR-3 5 µM | OVCAR-5 14.7 µM | RPMI-8226 9.02 µM | SNB-75 6.85 µM | UACC-257 11 µM | UO-31 13.3 µM

N/C(=N\O)N/N=C\c1ccc(O)c(O)c1O
inactive: A549 > 58.7 µM | CCRF-CEM 17.3 µM | COLO 205 12.9 µM | HCC 2998 36.9 µM | HL-60 17.2 µM | HOP-92 > 55.3 µM | KM12 26.7 µM | MOLT-4 24.9 µM | Malme-3M > 100 µM | OVCAR-3 22.7 µM | OVCAR-5 > 48.1 µM | RPMI-8226 41.5 µM | SNB-75 17.3 µM | UACC-257 63.7 µM | UO-31 > 100 µM

S=c1sc2c(s1)SC(c1ccccc1)CS2 (stereo not drawn)
inactive: A549 > 100 µM | CCRF-CEM > 100 µM | COLO 205 > 100 µM | HCC 2998 > 85.1 µM | HL-60 > 51.3 µM | HOP-92 > 64.4 µM | KM12 > 100 µM | MOLT-4 > 100 µM | Malme-3M > 100 µM | OVCAR-3 > 66.2 µM | OVCAR-5 > 100 µM | RPMI-8226 > 100 µM | SNB-75 > 45 µM | UACC-257 > 21.7 µM | UO-31 > 100 µM

CSc1nc(NC2OCC(OC(C)=O)C(OC(C)=O)C2OC(C)=O)c(/N=C(\C)C(C)=O)c(=O)[nH]1 (stereo not drawn)
inactive: A549 > 100 µM | CCRF-CEM > 100 µM | COLO 205 > 100 µM | HL-60 > 100 µM | HOP-92 > 100 µM | KM12 > 100 µM | MOLT-4 > 100 µM | Malme-3M > 100 µM | OVCAR-5 > 100 µM | RPMI-8226 > 100 µM | SNB-75 > 100 µM | TK-10 > 100 µM | UACC-257 > 100 µM

COS(=O)c1cc(Cl)cc(Cl)c1O (stereo not drawn)
inactive: CCRF-CEM > 100 µM | HCC 2998 > 100 µM | HL-60 > 100 µM | KM12 > 100 µM | MOLT-4 > 100 µM | Malme-3M > 100 µM | OVCAR-3 > 100 µM | OVCAR-5 > 100 µM | SNB-75 87.7 µM | TK-10 > 100 µM | UACC-257 > 100 µM | UO-31 > 100 µM

COC(=O)C(C)NP(=O)(N1CC1)N1CC1 (stereo not drawn)
inactive: A549 > 100 µM | CCRF-CEM 47.6 µM | COLO 205 > 100 µM | HCC 2998 > 100 µM | HL-60 32.7 µM | KM12 > 100 µM | MOLT-4 40.3 µM | Malme-3M > 100 µM | OVCAR-5 > 100 µM | RPMI-8226 > 100 µM | SNB-75 > 100 µM | TK-10 > 100 µM | UACC-257 > 100 µM | UO-31 > 100 µM

Cc1ccc(C)c(NC(=O)CCC(=O)CC(=O)C(C)(C)C)c1
inactive: A549 > 100 µM | CCRF-CEM > 100 µM | COLO 205 > 100 µM | HCC 2998 > 100 µM | HOP-92 > 100 µM | KM12 > 100 µM | MOLT-4 > 100 µM | Malme-3M > 100 µM | OVCAR-3 > 100 µM | OVCAR-5 > 100 µM | RPMI-8226 > 100 µM | SNB-75 > 100 µM | TK-10 > 100 µM | UACC-257 > 100 µM | UO-31 > 100 µM

COc1cc(/N=N\c2cccc(S(=O)(=O)O)c2)ccc1/N=N\c1ccc(/C=C/c2ccc(-n3on3-c3ccc(/C=C/c4ccc(/N=N/c5ccc(/N=N\c6cccc(S(=O)(=O)O)c6)cc5OC)cc4S(=O)(=O)O)c(S(=O)(=O)O)c3)cc2S(=O)(=O)O)c(S(=O)(=O)O)c1
inactive: A549 > 100 µM | CCRF-CEM > 100 µM | COLO 205 > 100 µM | HCC 2998 > 100 µM | HL-60 > 80 µM | HOP-92 > 86.1 µM | KM12 > 100 µM | MOLT-4 > 100 µM | Malme-3M > 100 µM | OVCAR-3 > 100 µM | OVCAR-5 > 100 µM | RPMI-8226 > 100 µM | SNB-75 91.8 µM | UACC-257 > 100 µM | UO-31 > 100 µM
